# Results reported in patent US20250109127A1, “METHODS OF USE OF PHENOXYPROPYLAMINE COMPOUNDS TO TREAT DEPRESSION” (Minerva Neurosciences, Inc., priority 2013, published 2025).
# Where a name gives a salt, the structure may show the parent alone.
# Test system: DOPAC release in the rat prefrontal cortex
# Experiment: Microdialysis: DOPAC release in prefrontal cortex after I.P. administration
# Format: in vivo
# Settings: for DOPAC release, MEAN: 3 mg/kg IP; for DOPAC release, MEAN / DOPAC (% of respective basal) MEAN: n = 8
# Protocol: The aim of the study was to evaluate, using microdialysis, the effects of an intraperitoneal (I.P.) administration in rats of three different doses of SON-117 on dopamine and its metabolites, serotonin and its metabolite (5-HIAA), and norepinephrine levels in prefrontal cortex.
# Thirty-two adult male Wistar rats were used for the whole study (4 groups of eight animals planned for the study, Table 1).
# Surgery was performed on rats weighing about 300 g at the beginning of the experiments. Rats were anaesthetized with Ketamine (50 mg/kg) & Xylazine (15 mg/kg) by intramuscular administration. The animals were placed in a stereotaxic apparatus in the flat-skull position at a constant setting of −3.3 mm between ear bars and the incisor bar. The animals were treated with a local anesthesic (xylocaine 1%, Astra Zeneca) and an analgesic (Temgesic, from Schering Plough, 0.05 mg/kg, s.c.). A rostrocaudal midline incision was made with a lancet to expose the dorsal skull surface. The “stereotaxic zero” was defined by the Bregma in accordance with Paxinos and Watson's atlas (1986). A hole was drilled in the skull with a drill and the meninges were pierced with a sterile needle to implant a CMA12 guide cannula which later received the dialysis probe.
# Coordinates used for implanting guide cannula in prefrontal cortex from Bregma were anteroposterior 3.7 mm, mediolateral 0.8 mm, and dorsoventral −2 mm (top of the probe was at −5 mm). The guide cannula was fixed to the skull with two stainless steel screws (1.88 mm outside diameter) anchored. An application of dental cement was added. A plastic collar allowed each animal to be tethered to a Swivel assembly of the CMA 120 awake animal system. Following surgery, rats were kept in individual cages and allowed to recover for a minimum of 3-5 days before the experimentation. The rats were handled and put in plastic bowl for 10 min at least every day to habituate the animals to their new environment for the dialysis. An I.P. administration with saline was also performed every day.
# Dialysis probes (CMA12/3 mm, membrane, 20 kD cut-off, Carnegie Medicine, Stockholm, Sweden), were carefully washed before inserting into the guide cannula. The wash was performed with the artificial cerebrospinal fluid (aCSF) medium (NaCl 147 mM, KCl 2.7 mM, CaCl2 1.2 mM, MgCl2 0.85 mM) at room temperature. The dialysis system was then equilibrated at 20° C. at a perfusion rate of 1 μl/min with a Carnegie pump (CMA100). All catheters (FEP tubing, internal volume of 1.2 μl/10 cm, and tubing adaptors) used for microdialysis were treated in the same conditions.
# The probes duly prepared were inserted into the guide cannula and the CMA120 Swivel assembly secured to the animal using a plastic collar. Flow through the dialysis probe with aCSF was maintained at a rate of 1 μl/min during the whole experimentation. The first four fractions (corresponding to 2 hours) were discarded to avoid the effects of parenchymal disturbance and to ensure that an approximate steady-state level was reached. Fractions were then collected over a period of 8.5 h during which time the animals remained quiet. The dialysates were automatically collected with an autosampler (microfraction collector CMA 140, Carnegie Medicin) and stored at −80° C. until analysis. […] Perfusion was then maintained for 7 hours with aCSF. The dialysates (30 μl) were collected into 300 μl vials, transferred into dry ice and then kept frozen (−80° C.) until analysis. Frozen samples were shipped to a partner for analysis. At the end of the microdialysis study, a PBS with colored ink was perfused through the probe in order to visualize the dialyzed area.
# Catecholamine assay: Concentrations of dopamine, DOPAC, HVA, 5-HIAA, 5-HT, and norepinephrin were determined for each sample by HPLC coupled with electrochemical detection.
smiles,measurement,setting,value
"Cc1nnc(-c2cc3c(OC[C@@H](O)CN4CCC(c5ccc(Cl)c(Cl)c5)CC4)cccc3o2)o1 [SON-117, (S)-1-(4-(3,4-dichlorophenyl)piperidino)-3-(2-(5-methyl-1,3,4-oxadiazol-2-yl)benzo(b)furan-4-yloxy)-2-propanol hydrochloride]","DOPAC release, MEAN",T-1 h 30-T-1 h (before administration),101.39 % of respective basal
same,"DOPAC release, MEAN",T-1 h-T-30 min (before administration),103.75 % of respective basal
same,"DOPAC levels, change (not statistically significant)","SON-117 0.1 mg/kg I.P., from 1.5 h to 2.5 h and from 4.5 h to 7 h",tended to induce a slight increase
same,"release of DOPAC, trend","SON-117 0.1 mg/kg, at 2 h and from 4.5 h to 7 h",trend for an increased release
same,DOPAC dialysate levels vs mean pre-administration value,SON-117 0.3 mg/kg IP,no statistically significant differences
same,DOPAC dialysate levels vs mean pre-administration value,SON-117 3 mg/kg IP,no statistically significant differences
same,"DOPAC, difference to the citalopram group (two-way ANOVA)","SON-117 at the three doses tested, in function of time",no significant differences
same,DOPAC (% of respective basal) MEAN,"SON-117 group 0.1 mg/kg I.P., T0-T30 min",81.81 % of respective basal
same,DOPAC (% of respective basal) MEAN,"SON-117 group 0.1 mg/kg I.P., T30-T1 h",104.52 % of respective basal
same,DOPAC (% of respective basal) MEAN,"SON-117 group 0.1 mg/kg I.P., T1 h 30-T2 h",144.57 % of respective basal
same,DOPAC (% of respective basal) MEAN,"SON-117 group 0.1 mg/kg I.P., T1 h-T1 h 30",112.3 % of respective basal
same,DOPAC (% of respective basal) MEAN,"SON-117 group 0.1 mg/kg I.P., T2 h 30-T3 h",94.20 % of respective basal
same,DOPAC (% of respective basal) MEAN,"SON-117 group 0.1 mg/kg I.P., T2 h-T2 h 30",102.15 % of respective basal
same,DOPAC (% of respective basal) MEAN,"SON-117 group 0.1 mg/kg I.P., T3 h 30-T4 h",96.09 % of respective basal
same,DOPAC (% of respective basal) MEAN,"SON-117 group 0.1 mg/kg I.P., T3 h-T3 h 30",90.94 % of respective basal
same,DOPAC (% of respective basal) MEAN,"SON-117 group 0.1 mg/kg I.P., T4 h 30-T5 h",120.32 % of respective basal
same,DOPAC (% of respective basal) MEAN,"SON-117 group 0.1 mg/kg I.P., T4 h-T4 h 30",142.52 % of respective basal
same,DOPAC (% of respective basal) MEAN,"SON-117 group 0.1 mg/kg I.P., T5 h 30-T6 h",122.76 % of respective basal
same,DOPAC (% of respective basal) MEAN,"SON-117 group 0.1 mg/kg I.P., T5 h-T5 h 30",129.53 % of respective basal
same,DOPAC (% of respective basal) MEAN,"SON-117 group 0.1 mg/kg I.P., T6 h 30-T7 h",137.94 % of respective basal
same,DOPAC (% of respective basal) MEAN,"SON-117 group 0.1 mg/kg I.P., T6 h-T6 h 30",127.81 % of respective basal
same,DOPAC (% of respective basal) MEAN,"SON-117 group 0.1 mg/kg I.P., T-30 min-T0 (before administration)",90.82 % of respective basal
same,DOPAC (% of respective basal) MEAN,"SON-117 group 0.1 mg/kg I.P., T-1 h 30-T-1 h (before administration)",109.18 % of respective basal
same,DOPAC (% of respective basal) MEAN,"SON-117 group 0.1 mg/kg I.P., T-1 h-T-30 min (before administration)",100.52 % of respective basal
same,DOPAC (% of respective basal) MEAN,"SON-117 group 0.3 mg/kg I.P., T0-T30 min",86.10 % of respective basal
same,DOPAC (% of respective basal) MEAN,"SON-117 group 0.3 mg/kg I.P., T30-T1 h",84.32 % of respective basal
same,DOPAC (% of respective basal) MEAN,"SON-117 group 0.3 mg/kg I.P., T1 h 30-T2 h",102.17 % of respective basal
same,DOPAC (% of respective basal) MEAN,"SON-117 group 0.3 mg/kg I.P., T1 h-T1 h 30",93.91 % of respective basal
same,DOPAC (% of respective basal) MEAN,"SON-117 group 0.3 mg/kg I.P., T2 h 30-T3 h",83.76 % of respective basal
same,DOPAC (% of respective basal) MEAN,"SON-117 group 0.3 mg/kg I.P., T2 h-T2 h 30",81.99 % of respective basal
same,DOPAC (% of respective basal) MEAN,"SON-117 group 0.3 mg/kg I.P., T3 h 30-T4 h",94.46 % of respective basal
same,DOPAC (% of respective basal) MEAN,"SON-117 group 0.3 mg/kg I.P., T3 h-T3 h 30",83.66 % of respective basal
same,DOPAC (% of respective basal) MEAN,"SON-117 group 0.3 mg/kg I.P., T4 h 30-T5 h",107.30 % of respective basal
same,DOPAC (% of respective basal) MEAN,"SON-117 group 0.3 mg/kg I.P., T4 h-T4 h 30",94.25 % of respective basal
same,DOPAC (% of respective basal) MEAN,"SON-117 group 0.3 mg/kg I.P., T5 h 30-T6 h",88.68 % of respective basal
same,DOPAC (% of respective basal) MEAN,"SON-117 group 0.3 mg/kg I.P., T5 h-T5 h 30",79.90 % of respective basal
same,DOPAC (% of respective basal) MEAN,"SON-117 group 0.3 mg/kg I.P., T6 h 30-T7 h",96.87 % of respective basal
same,DOPAC (% of respective basal) MEAN,"SON-117 group 0.3 mg/kg I.P., T6 h-T6 h 30",97.32 % of respective basal
same,DOPAC (% of respective basal) MEAN,"SON-117 group 0.3 mg/kg I.P., T-30 min-T0 (before administration)",92.84 % of respective basal
same,DOPAC (% of respective basal) MEAN,"SON-117 group 0.3 mg/kg I.P., T-1 h 30-T-1 h (before administration)",104.24 % of respective basal
same,DOPAC (% of respective basal) MEAN,"SON-117 group 0.3 mg/kg I.P., T-1 h-T-30 min (before administration)",102.91 % of respective basal
